Patent US20030100550A1, “Carboxamide diazepin derivatives, preparation method, use as medicines, pharmaceutical compositions and use thereof” (priority 2002, published 2003)

Experiments:
Format in all cases: biochemical
Cathepsin B = molecular target: T1, Cathepsin B (Homo sapiens, UniProt P07858); experiment: Study of Cathepsin B inhibition (fluorescence, Z-arg-arg-AMC); conditions: for IC50: substrate Z-arg-arg-AMC 20 μM, enzyme 16 ng/ml, 1 hour at ambient temperature; for Cathepsin B, percentage in parentheses beside IC50 value (% inhibition): printed beside 20 μM, meaning not explained
T1 construct: purchased Calbiochem
Protocol: (§1) The products to be tested (10 mM) are diluted to […] in DMSO and distributed into Nunc polystyrene 96 well plates at a rate of 2 μl per well. Column 12 of the plate is reserved for the controls and therefore receives […] of DMSO (without products) per well. The plates are stored at −80° C. and thawed on the day of the experiment.
(§2) The products are diluted to 50 μM by adding 38 μl of reaction buffer: sodium acetate 100 mM, EDTA 5 mM, DTT […] pH 5.5. The addition as well as all the operations by pipette are carried out with a CybiWell 96 tip pipette. After mixing the solutions, each product is transferred into 2 wells (duplicates) of a Greiner black 384 well plate at a rate of 10 μl per well. Two 96-well plates can therefore be tested in a 384-well plate.
(§3) A solution of substrate at 50 μM, Z-Val-arg-AMC (Calbiochem), is prepared in the reaction buffer. The substrate, is then distributed into all the wells of the 384-well plate (20 μl per well).
(§4) A solution of Cathepsin K at 12.5 ng/ml is prepared in the reaction buffer and distributed into all the wells of the 384-well plate (20 μl per well) except for the 16 wells serving as 100% inhibition controls (column 23 and 24, lines I to P) which receive 20 μl of enzyme-free buffer.
(§5) The plates are then incubated 2H at ambient temperature, then read on Fluoroskan (Labsystems): excitation 390 nm; emission 460 nm
(§6) The final concentrations of each of the reagents are: products 10 μM, substrate 20 μM, enzyme 5 ng/ml.
(§7) The % inhibition for each of the products is calculated by using points at 0 and 100% inhibition of each plate as references. The products presenting a significant inhibition are then retested on a range of concentrations from 50 to 0.5 μM to determine an IC50.
Study of Cathepsin B Inhibition:
(§8) Protocol identical to that of Cathepsin K except for:
Z-arg-arg-AMC substrate (Calbiochem), solution at 50 μM, final concentration 20 μM
Cathepsin B (Calbiochem), solution at 40 ng/ml, final concentration 16 ng/ml
Incubation for 1 hour at ambient temperature

Papain = molecular target: T2, Papain (Carica papaya, UniProt P00784); experiment: Study of Papain inhibition (fluorescence); conditions: for IC50: enzyme 20 ng/ml, 30 minutes at ambient temperature; for Papain, percentage in parentheses beside IC50 value (% inhibition): printed beside 20 μM, meaning not explained
T2 construct: purchased Sigma
T2 sequence (P00784 134-345): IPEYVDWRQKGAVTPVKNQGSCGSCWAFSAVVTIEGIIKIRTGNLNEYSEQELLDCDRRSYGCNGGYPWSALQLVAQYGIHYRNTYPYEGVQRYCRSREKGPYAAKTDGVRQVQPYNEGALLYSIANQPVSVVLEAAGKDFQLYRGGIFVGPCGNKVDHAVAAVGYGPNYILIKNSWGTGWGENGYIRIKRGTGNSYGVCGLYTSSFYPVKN
Protocol: as §1, §2, §3, §4, §5, §6, §7
Study of Papain Inhibition:
as §8
Papain (Sigma), solution at 50 ng/ml, final concentration 20 ng/ml
Incubation for 30 minutes at ambient temperature

Cathepsin K = molecular target: T3, Cathepsin K (Homo sapiens, UniProt P43235); experiment: Study of Cathepsin K inhibition (fluorescence, Z-Val-arg-AMC); conditions: substrate Z-Val-arg-AMC 20 μM, enzyme 5 ng/ml, 2H at ambient temperature; read-out: Cathepsin K IC50
T3 sequence (P43235 115-329): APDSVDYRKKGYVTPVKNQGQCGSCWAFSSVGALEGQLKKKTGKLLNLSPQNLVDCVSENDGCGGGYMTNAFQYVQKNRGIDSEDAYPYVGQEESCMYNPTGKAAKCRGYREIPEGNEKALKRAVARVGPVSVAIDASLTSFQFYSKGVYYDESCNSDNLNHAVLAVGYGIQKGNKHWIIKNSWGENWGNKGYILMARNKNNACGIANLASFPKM
Method in brief: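 Recombinant cathepsin K (5 ng/ml final) with 20 μM Z-Val-Arg-AMC in 100 mM sodium acetate, 5 mM EDTA, DTT, pH 5.5; compounds screened at 10 μM in duplicate, 2 h at ambient temperature, fluorescence ex 390/em 460 nm. % inhibition vs plate 0/100% controls; actives retested 50–0.5 μM for IC50.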

Compound: [N-]=[N+]=CC(=O)[C@H](Cc1ccccc1)NC(=O)[C@@H]1CCCN2C(=O)CC[C@H](NC(=O)Nc3ccc(Oc4ccccc4)cc3)C(=O)N12 [Example 161, 9-[(9S)[[(4-phenoxyphenyl)amino]carbonyl]amino]-N-((2S)-4-diazo-1-phenyl-3-oxo-2-butyl)-octahydro-6,10-dioxo-6H-(1S)-pyridazino[1,2-a][1,2]diazepine-1-carboxamide]
- IC50 (Cathepsin B): 9 µM
- IC50 (Papain): 19 µM

Compound: O=C(NCCc1cccs1)N[C@H]1CCC(=O)N2CCC[C@@H](C(=O)N[C@@H](Cc3ccccc3)C(=O)COC(=O)c3c(Cl)cccc3Cl)N2C1=O [Example 224, 9-[(9S)-[[[2-(thien-2-yl)-ethyl]amino]carbonyl]amino]-N-[(2S)-1-phenyl-4-[(-2,6-dichlorobenzoyl)oxy]-3-oxo-2-butyl]-octahydro-6,10-dioxo-6H-(1S)-pyridazino[1,2-a][1,2]diazepine-1-carboxamide]
- IC50 (Cathepsin K): 20 µM
- IC50 (Cathepsin B): 9 µM
- IC50 (Papain): 8 µM

Compound: CC(C)[C@H](NC(=O)[C@@H]1CCCN2C(=O)CC[C@H](NC(=O)Nc3ccc(Oc4ccccc4)cc3)C(=O)N12)C(=O)CSc1nc2ccccc2s1 [Example 390]
- IC50 (Cathepsin K): 20 µM
- IC50 (Cathepsin B): 19 µM
- IC50 (Papain): 6 µM

Compound: C=CCOC(=O)CC[C@H](NC(=O)[C@@H]1CCCN2C(=O)CCC[C@H](NC(=O)NC3CCCCC3)C(=O)N12)C(=O)COC(=O)c1c(Cl)cccc1Cl [Example 122, (2-propenyl)(4S)6-[(2,6-dichlorobenzoyl)oxy]-4-[[[(1S,9S)-9-[[(cyclohexylamino)carbonyl]amino]-octahydro-6,10-dioxo-o-6H-pyridazino[1,2-a][1,2]diazepine-1-yl]carbonyl]amino]-5-oxo-hexanoate]
- IC50 (Cathepsin K): 18 µM
- IC50 (Cathepsin B): 0.7 µM
- Papain, percentage in parentheses beside IC50 value (% inhibition) (Papain): 45%

Compound: CC(C)[C@H](NC(=O)[C@@H]1CCCN2C(=O)CC[C@H](NC(=O)Nc3ccc(Oc4ccccc4)cc3)C(=O)N12)C(=O)CSc1nnnn1-c1ccccc1 [Example 389, 9-[(9S)-[[(4-phenoxyphenyl)amino]carbonyl]amino]-N-[(3S)-1-[(1-phenyl-1H-tetrazol-5-yl)thio]-4-methyl-2-oxo-3-pentyl]-octahydro-6,10-dioxo-6H-(1S)-pyridazino [1,2-a][1,2]diazepine-1-carboxamide]
- IC50 (Cathepsin K): 20 µM
- IC50 (Papain): 6 µM

Compound: C[C@H](NC(=O)[C@@H]1CCCN2C(=O)CC[C@H](NC(=O)NCCc3cccs3)C(=O)N12)C(=O)C=[N+]=[N-] [Example 172, 9-[(9S)-[[[3-(thien-2-yl)-ethyl]amino]carbonyl]amino]-N-((2S)-4-diazo-3-oxo-2-butyl)-octahydro-6,10-dioxo-6H-(1S)-pyridazino[1,2-a][1,2]diazepine-1-carboxamide]
- IC50 (Cathepsin K): 20 µM
- Cathepsin B, percentage in parentheses beside IC50 value (% inhibition) (Cathepsin B): 20 (20%)
- Papain, percentage in parentheses beside IC50 value (% inhibition) (Papain): 10%

Compound: CC(C)(C)Oc1ccc(C[C@H](NC(=O)[C@@H]2CCCN3C(=O)CC[C@H](NC(=O)Nc4ccc(Oc5ccccc5)cc4)C(=O)N23)C(=O)C=[N+]=[N-])cc1 [Example 54, 9-[(9S)-[[(4-phenoxyphenyl)amino]carbonyl]amino]-N-[(2S)-4-diazo-1-[4-[(1,1-dimethyl)ethoxy]phenyl]-3-oxo-2-butyl]-6H-(1S)-pyridazino[1,2-a][1,2]diazepine-1-carboxamide]
- Cathepsin B, percentage in parentheses beside IC50 value (% inhibition) (Cathepsin B): 30%
- IC50 (Papain): 15 µM

Compound: C=CCOC(=O)CC[C@H](NC(=O)[C@@H]1CCCN2C(=O)CC[C@H](NC(=O)Nc3ccc(Oc4ccccc4)cc3)C(=O)N12)C(=O)COC(=O)c1c(Cl)cccc1Cl [Example 132, (2-propenyl)(4S)6-[(2,6-dichlorobenzoyl)oxy]-4-[[[(1S,9S)-9-[[[(4-phenoxyphenyl)amino]carbonyl]amino]-octahydro-6,10-dioxo-6H-pyridazino[1,2-a][1,2]diazepine-1-yl]carbonyl]amino]-5-oxo-hexanoate]
- IC50 (Cathepsin K): 20 µM
- IC50 (Cathepsin B): 2 µM
- IC50 (Papain): 6 µM
